Measurements from patent US20130296311A1, “INHIBITORS OF HCV NS5A” (PRESIDIO PHARMACEUTICALS, INC., priority 2010, published 2013).

The molecules below were run on HCV 1b_Huh-Luc/Neo-ET cell line persistently expressing a bicistronic genotype 1b replicon in Huh 7 cells (assay: HCV replicon assay (luciferase readout, 72 h)). Conditions: Hepatitis C virus, Huh-7, 72 h, read-out: Inhibition of HCV genotype 1b.
Assay type: cell-based, HCV genotype 1b
Outline: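 Huh 7 cells carrying a bicistronic genotype 1b luciferase/neo replicon received compound in triplicate the day after plating. After 72 h, replicon levels were read as Bright-Glo luciferase activity, expressed as % of control; EC50 was fitted with a four-parameter logistic and determined several times.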

| SMILES | EC50 |
| --- | --- |
| O=C(N[C@@H](C(=O)N1CCC[C@H]1c1ncc(-c2ccc(C#Cc3ccc(-c4cnc([C@@H]5CCCN5C(=O)[C@H](NC(=O)N5CC[C@@H](O)C5)c5ccccc5)[nH]4)cc3)cc2)[nH]1)c1ccccc1)N1CC[C@@H](O)C1 [Compound 252] | < 1 nM |
| CN(C)[C@@H](C(=O)N1CCC[C@H]1c1ncc(C#Cc2ccc(C#Cc3cnc([C@@H]4CCCN4C(=O)[C@@H](c4ccccc4)N(C)C)[nH]3)cc2)[nH]1)c1ccccc1 [Compound 305] | < 1 nM |
| O=C(NC[C@@H]1CCCN1C(=O)[C@H](NC(=O)C1CC1)c1ccccc1)c1ccc(C#Cc2ccc(-c3cnc([C@@H]4CCCN4C(=O)[C@H](NC(=O)C4CC4)c4ccccc4)[nH]3)cc2)cc1 [Compound 193] | < 1 nM |
| COC(=O)N[C@@H](C(=O)N1CCC[C@H]1c1ncc(-c2ccc(C#Cc3ccc(-c4cnc([C@@H]5CCCN5C(=O)[C@H](NC(=O)N5CC[C@H](OC)C5)c5ccccc5)[nH]4)cc3)cc2)[nH]1)c1ccccc1 [Compound 272] | < 1 nM |
| COC(=O)N[C@@H](CCC(N)=O)C(=O)N1CCC[C@H]1c1ncc(-c2ccc(C#Cc3ccc4nc([C@@H]5CCCN5C(=O)[C@H](CCC(N)=O)NC(=O)OC)[nH]c4c3)cc2)[nH]1 [Compound 1051] | 1 to 9.9 nM |
| COC(=O)N[C@@H](C(=O)N1CCC[C@H]1c1ncc(-c2ccc(C#Cc3ccc(-c4cnc([C@@H]5CCCN5C(=O)[C@H](NC(=O)N5CCC(C)(O)CC5)c5ccccc5)[nH]4)cc3)cc2)[nH]1)c1ccccc1 [Compound 273] | < 1 nM |
| CC(C)[C@H](NC(=O)[C@H](NC(=O)OC(C)(C)C)c1ccccc1)c1ncc(-c2ccc(C#Cc3ccc(-c4cnc([C@@H]5CCCN5C(=O)[C@H](NC(=O)OC(C)(C)C)c5ccccc5)[nH]4)cc3)cc2)[nH]1 [Compound 281] | 1 to 9.9 nM |
| COC(=O)N[C@H](C(=O)N1C[C@H](F)C[C@H]1c1ncc(-c2ccc(C#Cc3ccc4nc([C@@H]5CCCN5C(=O)[C@@H](NC(=O)OC)C(C)C)[nH]c4c3)cc2)[nH]1)C(C)C [Compound 1040] | < 1 nM |
| O=C([C@@H](c1ccccc1)N1CCCCC1)N1CCC[C@H]1c1ncc(-c2ccc(C#Cc3ccc(-c4cnc([C@@H]5CCCN5C(=O)[C@@H](c5ccccc5)N5CCCCC5)[nH]4)cc3)cc2)[nH]1 [Compound 205] | < 1 nM |
| CC(C)[C@@H](NC(=O)OC(C)(C)C)C(=O)N1CCC[C@H]1C(=O)Nc1ccc(C#Cc2cnc([C@@H]3CCCN3C(=O)[C@H](NC(=O)OC(C)(C)C)C(C)C)[nH]2)cc1 [Compound 114] | 10 to 999 nM |
| COC(=O)N[C@@H](C(=O)N1CCC[C@H]1c1ncc(C#Cc2ccc(C#Cc3cnc([C@@H]4CCCN4C(=O)[C@@H](c4ccccc4)N4CCCCC4)[nH]3)cc2)[nH]1)c1ccccc1 [Compound 312] | < 1 nM |
| CCN(CC)[C@@H](C(=O)N1CCC[C@H]1c1ncc(-c2ccc(-c3ccc(C#Cc4cnc([C@@H]5CCCN5C(=O)[C@H](NC(=O)OC)c5ccccc5)[nH]4)cc3)cc2)[nH]1)c1ccccc1 [Compound 751] | < 1 nM |
| COC(=O)N[C@H](C(=O)N1CCC[C@H]1c1ncc(-c2ccc(C#Cc3ccc(-c4cnc([C@@H]5CCCN5C(=O)[C@@H](c5ccccc5)N5CCN(C)CC5)[nH]4)cc3)cc2)[nH]1)C(C)C [Compound 957] | < 1 nM |
| COC(=O)N[C@H](C(=O)N1CCC[C@H]1c1ncc(-c2ccc(C#Cc3ccc(-c4cnc([C@@H]5CCCN5C(=O)[C@@H](NC(=O)OC)C(C)C)[nH]4)c(F)c3)cc2)[nH]1)C(C)C [Compound 1011] | < 1 nM |
| COC(=O)NCC(=O)N1CCC[C@H]1c1ncc(-c2ccc(C#Cc3ccc4nc([C@@H]5CCCN5C(=O)CNC(=O)OC)[nH]c4c3)cc2)[nH]1 [Compound 1049] | 10 to 999 nM |
| O=C(N[C@@H](C(=O)N1CCC[C@H]1c1ncc(-c2ccc(C#Cc3ccc(-c4cnc([C@@H]5CCCN5C(=O)[C@H](NC(=O)N5CCCCC5)c5ccccc5)[nH]4)cc3)cc2)[nH]1)c1ccccc1)N1CCCCC1 [Compound 250] | < 1 nM |

| SMILES | EC50 |
| --- | --- |
| COC(=O)N[C@H](C(=O)N1CCC[C@H]1c1ncc(-c2ccc(C#Cc3ccc(-c4cnc([C@@H]5CCCN5C(=O)[C@H](NC(=O)N5CCC(O)CC5)c5ccccc5)[nH]4)cc3)cc2)[nH]1)C(C)C [Compound 991] | 1 to 9.9 nM |
| COC(=O)N[C@H](C(=O)N1CCC[C@H]1c1nc2c([nH]1)-c1ccc(C#Cc3ccc(-c4cnc([C@@H]5CCCN5C(=O)[C@@H](NC(=O)OC)C5CCOCC5)[nH]4)cc3)cc1CC2)C(C)C [Compound 1091] | < 1 nM |
| CS(=O)(=O)N[C@@H](C(=O)N1CCC[C@H]1c1ncc(-c2ccc(C#Cc3ccc(-c4cnc([C@@H]5CCCN5C(=O)[C@@H](c5ccccc5)N5CCOCC5)[nH]4)cc3)cc2)[nH]1)c1ccccc1 [Compound 232] | < 1 nM |
| COC(=O)N[C@H](C(=O)N1CCC[C@H]1c1nc2ccc(C#Cc3ccc(-c4cnc([C@@H]5CCCN5)[nH]4)cc3)cc2[nH]1)C(C)C [Compound 1055] | 10 to 999 nM |
| COC(=O)N[C@@H](C)C(=O)N1CCC[C@H]1c1ncc(-c2ccc(C#Cc3ccc(-c4cnc([C@@H]5CCCN5C(=O)[C@H](C)NC(=O)OC)[nH]4)cc3)cc2)[nH]1 [Compound 962] | < 1 nM |
| COC(=O)N[C@H](C(=O)N1CCC[C@H]1c1nc(-c2ccc3cc(C#Cc4[nH]c([C@@H]5CCCN5C(=O)[C@@H](NC(=O)OC)C(C)C)nc4C(F)(F)F)ccc3c2)c[nH]1)C(C)C [Compound 1082] | < 1 nM |
| COC(=O)N[C@H](C(=O)N[C@@H](C)c1ncc(-c2ccc(C#Cc3ccc(-c4cnc([C@@H]5CCCN5C(=O)[C@@H](c5ccccc5)N(C)C)[nH]4)cc3)cc2)[nH]1)C(C)C [Compound 965] | < 1 nM |
| COC(=O)N[C@H](C(=O)N1CCC[C@H]1c1ncc(-c2ccc(C#Cc3ccc4nc([C@@H]5CCCN5C(=O)[C@@H](NC(=O)OC)C5CCCC5)[nH]c4c3)cc2)[nH]1)C1CCCC1 [Compound 1025] | < 1 nM |
| COC(=O)N[C@@H](C(=O)N1CCC[C@H]1c1ncc(C#Cc2ccc(C#Cc3cnc([C@@H]4CCCN4C(=O)[C@H](NC(=O)OC)c4ccccc4)[nH]3)cc2)[nH]1)c1ccccc1 [Compound 304] | < 1 nM |
| CC(C)(C)OC(=O)N1CCC[C@H]1c1ncc(C#Cc2ccc(-c3cnc([C@@H]4CCCN4C(=O)OC(C)(C)C)[nH]3)cc2)[nH]1 [Compound 101] | 10 to 999 nM |
| CNC(=O)N[C@@H](C(=O)N1CCC[C@H]1c1ncc(C#Cc2ccc(C#Cc3cnc([C@@H]4CCCN4C(=O)[C@H](NC(=O)NC)c4ccccc4)[nH]3)cc2)[nH]1)c1ccccc1 [Compound 307] | < 1 nM |
| CC(C)(C)OC(=O)N1CCCC1c1ncc(-c2ccc(C#Cc3ccc4nc([C@@H]5CCCN5C(=O)OC(C)(C)C)[nH]c4c3)cc2)[nH]1 (stereo partly drawn) [Compound 1034] | 1 to 9.9 nM |
| O=S(=O)(c1ccccc1)N1CCC[C@H]1c1ncc(-c2ccc(C#Cc3ccc4nc([C@@H]5CCCN5S(=O)(=O)c5ccccc5)[nH]c4c3)cc2)[nH]1 [Compound 1038] | > 1000 nM |
| COC(=O)NC1(C(=O)N2CCC[C@H]2c2ncc(-c3ccc(C#Cc4ccc5nc([C@@H]6CCCN6C(=O)C6(NC(=O)OC)CC6)[nH]c5c4)cc3)[nH]2)CC1 [Compound 1043] | 10 to 999 nM |
| COC(=O)N[C@H](C(=O)N1CCC[C@H]1c1nc(-c2ccc3cc(C#Cc4cnc([C@@H]5CCCN5C(=O)[C@H](NC(=O)OC)c5ccccc5)[nH]4)ccc3c2)c[nH]1)C(C)C [Compound 1077] | < 1 nM |

Same assay, conditions: Hepatitis C virus, Huh-7, read-out: Inhibition of HCV genotype 1b

| SMILES | EC50 |
| --- | --- |
| COC(=O)N[C@H](C(=O)N[C@@H](C)c1ncc(-c2ccc(C#Cc3ccc4nc([C@@H]5CCCN5C(=O)[C@@H](NC(=O)OC)C(C)C)[nH]c4c3)cc2)[nH]1)C(C)C [Compound 1225] | < 1 nM |
| COC(=O)N[C@H](C(=O)N1CCC[C@H]1c1nc(C)c(C#Cc2ccc3cc(-c4cnc([C@@H]5CCCN5C(=O)[C@@H](NC(=O)OC)[C@@H](C)OC)[nH]4)ccc3c2)[nH]1)C(C)C [Compound 1264] | < 1 nM |
| COC(=O)N[C@H](C(=O)N1CCN(C(=O)OC)C[C@H]1c1ncc(-c2ccc(C#Cc3ccc(-c4cnc([C@@H]5CCCN5C(=O)[C@@H](NC(=O)OC)C5CCOCC5)[nH]4)cc3)cc2)[nH]1)C(C)C [Compound 1205] | < 1 nM |
| COC(=O)N[C@H](C(=O)N1CCC[C@H]1c1ncc(-c2ccc(C#Cc3ccc4nc([C@@H]5CCCN5C(=O)[C@@H](NC(=O)OC)C(C)C)[nH]c4n3)cc2)[nH]1)C(C)C [Compound 1249] | < 1 nM |
| COC[C@H](NC(=O)OC)C(=O)N1CCC[C@H]1c1ncc(-c2ccc(C#Cc3ccc4nc([C@@H]5CCCN5C(=O)[C@@H](NC(=O)OC)C(C)C)[nH]c4c3)cc2)[nH]1 [Compound 1236] | < 1 nM |
| COC(=O)N[C@H](C(=O)N1CCC[C@H]1c1ncc(-c2ccc(C#Cc3ccc4nc([C@@H]5CCCN5C(=O)[C@@H](NC(=O)OC)C(C)C)[nH]c4c3)cc2F)[nH]1)C(C)C [Compound 1223] | < 1 nM |
| COC(=O)N[C@H](C(=O)N1CCC[C@H]1c1nc2ccc3cc(C#Cc4ccc5nc([C@@H]6CCCN6C(=O)[C@@H](NC(=O)OC)C6CCOCC6)[nH]c5c4)ccc3c2[nH]1)C(C)C [Compound 1274] | < 1 nM |
| COC(=O)N[C@H](C(=O)N1CCC[C@H]1c1nc2ccc(C#Cc3ccc(-c4cnc([C@@H]5CCCN5C(=O)[C@@H](NC(=O)OC)[C@@H](C)OC)[nH]4)cc3)cc2[nH]1)C(C)C [Compound 1235] | < 1 nM |
| [2H]C([2H])([2H])C([2H])(C([2H])([2H])[2H])[C@@]([2H])(NC(=O)OC)C(=O)N1CCC[C@H]1c1nc2ccc(C#Cc3ccc4c(ccc5nc([C@@H]6CCCN6C(=O)[C@@H](NC(=O)OC)C(C)C)[nH]c54)c3)cc2[nH]1 [Compound 1278] | < 1 nM |
| COC[C@H](NC(=O)OC)C(=O)N1CCC[C@H]1c1nc2ccc3cc(C#Cc4ccc5nc([C@@H]6CCCN6C(=O)[C@@H](NC(=O)OC)C(C)C)[nH]c5c4)ccc3c2[nH]1 [Compound 1288] | < 1 nM |
| COC(=O)N[C@H](C(=O)N1CCC[C@H]1c1ncc(-c2ccc(C#Cc3ccc(-c4cnc([C@@H]5CCCN5C(=O)[C@H](NC(=O)OC)c5cccs5)[nH]4)cc3)cc2)[nH]1)[C@@H](C)OC [Compound 1213] | < 1 nM |
